Results: the supplement of paper PMC10307832

What was measured:
Assay in all cases: relative viability (nuclei count vs DMSO), 5 days (fraction); higher = more cells survive
[1] = system: 201T
How it was run: (§1)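 Lung cancer cell lines, seeded in 1536-well plates, were treated the following day by pin tool with a single drug or with five library-drug doses (not always all listed) in √10 steps on top of a fixed anchor-drug dose. Cells were fixed and nuclei stained in one step after 5 days, and nuclei were counted. Relative viability is the nuclei count for treated wells divided by that for vehicle wells, reported as medians of duplicate plates.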

[2] = system: A-427
How it was run: as §1

[3] = system: COR-L23
How it was run: as §1

[4] = system: H3255
How it was run: as §1

[5] = system: HCC-44
How it was run: as §1

[6] = system: LCLC-103H
How it was run: as §1

[7] = system: LCLC-97TM1
How it was run: as §1

[8] = system: LK-2
How it was run: as §1

[9] = system: LU99A
How it was run: as §1

[10] = system: NCI-H1563
How it was run: as §1

[11] = system: NCI-H1650
How it was run: as §1

[12] = system: NCI-H1944
How it was run: as §1

[13] = system: NCI-H2347
How it was run: as §1

[14] = system: NCI-H23
How it was run: as §1

[15] = system: NCI-H460
How it was run: as §1

[16] = system: NCI-H650
How it was run: as §1

[17] = system: NCI-H727
How it was run: as §1

[18] = system: NCI-H838
How it was run: as §1

[19] = system: PC-14
How it was run: as §1

[20] = system: PC-3 [JPC-3]
How it was run: as §1

[21] = system: SW 1573
How it was run: as §1

## CC1(C)CCC(c2ccc(Cl)cc2)=C(CN2CCN(c3ccc(C(=O)NS(=O)(=O)c4ccc(N[C@H](CCN5CCOCC5)CSc5ccccc5)c(S(=O)(=O)C(F)(F)F)c4)cc3)CC2)C1 [Navitoclax] + C[C@@H](Oc1cc(-c2cnn(C3CCNCC3)c2)cnc1N)c1c(Cl)ccc(F)c1Cl [Crizotinib] (partner 1 µM)
[1]; first compound 0.005 µM
  relative viability: 1.03
[1]; first compound 0.01581 µM
  relative viability: 1.05
[1]; first compound 0.05 µM
  relative viability: 0.975
[1]; first compound 0.1581 µM
  relative viability: 1.04
[1]; first compound 0.5 µM
  relative viability: 1.03
[2]; first compound 0.005 µM
  relative viability: 0.828
[2]; first compound 0.01581 µM
  relative viability: 0.948
[2]; first compound 0.05 µM
  relative viability: 0.652
[2]; first compound 0.1581 µM
  relative viability: 1.01
[2]; first compound 0.5 µM
  relative viability: 0.915
[3]; first compound 0.005 µM
  relative viability: 0.618
[3]; first compound 0.01581 µM
  relative viability: 0.712
[3]; first compound 0.05 µM
  relative viability: 0.686
[3]; first compound 0.1581 µM
  relative viability: 0.664
[3]; first compound 0.5 µM
  relative viability: 0.643
[4]; first compound 0.005 µM
  relative viability: 0.902
[4]; first compound 0.01581 µM
  relative viability: 1.06
[4]; first compound 0.05 µM
  relative viability: 0.807
[4]; first compound 0.1581 µM
  relative viability: 0.891
[4]; first compound 0.5 µM
  relative viability: 0.835
[5]; first compound 0.005 µM
  relative viability: 0.815
[5]; first compound 0.01581 µM
  relative viability: 0.835
[5]; first compound 0.05 µM
  relative viability: 0.794
[5]; first compound 0.1581 µM
  relative viability: 0.825
[5]; first compound 0.5 µM
  relative viability: 0.866
[6]; first compound 0.005 µM
  relative viability: 1.05
[6]; first compound 0.01581 µM
  relative viability: 0.979
[6]; first compound 0.05 µM
  relative viability: 0.951
[6]; first compound 0.1581 µM
  relative viability: 1.12
[6]; first compound 0.5 µM
  relative viability: 0.976
[7]; first compound 0.005 µM
  relative viability: 0.358
[7]; first compound 0.01581 µM
  relative viability: 0.337
[7]; first compound 0.05 µM
  relative viability: 0.294
[7]; first compound 0.1581 µM
  relative viability: 0.333
[7]; first compound 0.5 µM
  relative viability: 0.381
[8]; first compound 0.005 µM
  relative viability: 0.226
[8]; first compound 0.01581 µM
  relative viability: 0.21
[8]; first compound 0.05 µM
  relative viability: 0.246
[8]; first compound 0.1581 µM
  relative viability: 0.191
[8]; first compound 0.5 µM
  relative viability: 0.263
[9]; first compound 0.005 µM
  relative viability: 0.549
[9]; first compound 0.01581 µM
  relative viability: 0.691
[9]; first compound 0.05 µM
  relative viability: 0.39
[9]; first compound 0.1581 µM
  relative viability: 0.588
[9]; first compound 0.5 µM
  relative viability: 0.638
[10]; first compound 0.005 µM
  relative viability: 0.908
[10]; first compound 0.01581 µM
  relative viability: 0.92
[10]; first compound 0.05 µM
  relative viability: 0.897
[10]; first compound 0.1581 µM
  relative viability: 0.808
[10]; first compound 0.5 µM
  relative viability: 1.12
[11]; first compound 0.005 µM
  relative viability: 0.995
[11]; first compound 0.01581 µM
  relative viability: 1.13
[11]; first compound 0.05 µM
  relative viability: 1.17
[11]; first compound 0.1581 µM
  relative viability: 0.938
[11]; first compound 0.5 µM
  relative viability: 0.667
[12]; first compound 0.005 µM
  relative viability: 1.05
[12]; first compound 0.01581 µM
  relative viability: 1.13
[12]; first compound 0.05 µM
  relative viability: 0.798
[12]; first compound 0.1581 µM
  relative viability: 1.14
[12]; first compound 0.5 µM
  relative viability: 1.03
[13]; first compound 0.005 µM
  relative viability: 0.653
[13]; first compound 0.01581 µM
  relative viability: 0.602
[13]; first compound 0.05 µM
  relative viability: 0.2
[13]; first compound 0.1581 µM
  relative viability: 0.681
[13]; first compound 0.5 µM
  relative viability: 0.705
[14]; first compound 0.005 µM
  relative viability: 0.519
[14]; first compound 0.01581 µM
  relative viability: 0.494
[14]; first compound 0.05 µM
  relative viability: 0.516
[14]; first compound 0.1581 µM
  relative viability: 0.516
[14]; first compound 0.5 µM
  relative viability: 0.545
[15]; first compound 0.005 µM
  relative viability: 0.805
[15]; first compound 0.01581 µM
  relative viability: 0.915
[15]; first compound 0.05 µM
  relative viability: 0.979
[15]; first compound 0.1581 µM
  relative viability: 0.894
[15]; first compound 0.5 µM
  relative viability: 0.874
[16]; first compound 0.005 µM
  relative viability: 0.636
[16]; first compound 0.01581 µM
  relative viability: 0.699
[16]; first compound 0.05 µM
  relative viability: 0.814
[16]; first compound 0.1581 µM
  relative viability: 0.707
[16]; first compound 0.5 µM
  relative viability: 0.805
[17]; first compound 0.005 µM
  relative viability: 0.692
[17]; first compound 0.01581 µM
  relative viability: 1.11
[17]; first compound 0.1581 µM
  relative viability: 0.797
[17]; first compound 0.5 µM
  relative viability: 0.73
[18]; first compound 0.005 µM
  relative viability: 0.794
[18]; first compound 0.01581 µM
  relative viability: 0.885
[18]; first compound 0.05 µM
  relative viability: 1.01
[18]; first compound 0.1581 µM
  relative viability: 0.802
[18]; first compound 0.5 µM
  relative viability: 0.817
[19]; first compound 0.005 µM
  relative viability: 0.905
[19]; first compound 0.01581 µM
  relative viability: 0.977
[19]; first compound 0.05 µM
  relative viability: 0.951
[19]; first compound 0.1581 µM
  relative viability: 0.886
[19]; first compound 0.5 µM
  relative viability: 0.952
[20]; first compound 0.005 µM
  relative viability: 1.01
[20]; first compound 0.01581 µM
  relative viability: 0.986
[20]; first compound 0.05 µM
  relative viability: 0.927
[20]; first compound 0.1581 µM
  relative viability: 0.991
[20]; first compound 0.5 µM
  relative viability: 0.963
[21]; first compound 0.005 µM
  relative viability: 0.716
[21]; first compound 0.01581 µM
  relative viability: 0.794
[21]; first compound 0.05 µM
  relative viability: 0.674
[21]; first compound 0.1581 µM
  relative viability: 0.687
[21]; first compound 0.5 µM
  relative viability: 0.981
